Among the data in patent US11976083B2, “Inhibitors of peptidylarginine deiminases” (Gilead Sciences, Inc., priority 2020, dated 2024) are IC50 values, retold here.

The target in this assay is T1, human PAD4 (Homo sapiens, UniProt Q9UM07).
T1 construct: human PAD4 (NM_012387), A2-P663, was PCR amplified; His-SUMO (N, cleaved yes); made in house; host or cells: E. coli BL21(DE3)
T1 sequence (Q9UM07 2-663): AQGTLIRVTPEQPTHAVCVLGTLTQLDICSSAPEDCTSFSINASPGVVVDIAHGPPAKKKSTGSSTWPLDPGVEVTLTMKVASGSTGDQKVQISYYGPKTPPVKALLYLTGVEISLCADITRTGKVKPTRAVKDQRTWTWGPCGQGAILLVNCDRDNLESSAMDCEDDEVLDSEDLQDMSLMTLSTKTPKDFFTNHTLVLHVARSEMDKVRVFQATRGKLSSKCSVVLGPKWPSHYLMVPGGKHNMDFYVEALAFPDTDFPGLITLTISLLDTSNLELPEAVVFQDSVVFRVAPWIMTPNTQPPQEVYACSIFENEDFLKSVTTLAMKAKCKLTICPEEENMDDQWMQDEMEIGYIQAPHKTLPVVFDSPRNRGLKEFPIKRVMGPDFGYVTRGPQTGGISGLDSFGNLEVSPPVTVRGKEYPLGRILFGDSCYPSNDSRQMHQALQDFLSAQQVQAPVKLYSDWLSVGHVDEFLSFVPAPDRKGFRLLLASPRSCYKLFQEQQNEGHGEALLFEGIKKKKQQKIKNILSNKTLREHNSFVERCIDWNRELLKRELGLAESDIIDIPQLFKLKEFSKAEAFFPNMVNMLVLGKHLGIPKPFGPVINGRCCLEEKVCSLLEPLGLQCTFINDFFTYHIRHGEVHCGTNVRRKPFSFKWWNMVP
The experiment in a line: In vitro PAD4 BAEE biochemical assay. The following applies: BAEE substrate 3 mM, 5 nM PAD4, 2 mM calcium chloride; geometric mean of multiple experiments. The method in brief: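 Fluorescence read-out (ex 405/em 535 nm) of isoindole formed from ammonia, o-phthalaldehyde and DTT after EDTA stop. Reaction: 5 nM PAD4, 2 mM CaCl2, 3 mM BAEE, 2 h, 25 °C, after 30 min enzyme–compound preincubation. Normalised to BB-Cl-Amidine (50 µM) and DMSO controls.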
Turning to `COc1cc(C(=O)N2C[C@H]3C[C@H]3[C@H](N)C2)cc2nc(-c3cc4ccc5nc4n3CCCCCCC(C)(C)C(=O)N[C@@H]5C)n(C)c12` [Example 543, (11~{R})-17-[5-[(1~ {S},5~{S},6~{R})-5-amino-3-azabicyclo [4.1.0]heptane-3-carbonyl]-7-methoxy-1-methyl-benzimidazol-2-yl]-8,8,11-trimethyl-1,10,19-triazatricyclo [10.5.2.0^{15,18}]nonadeca-12(19),13,15(18), 16-tetraen-9-one], the IC50 was determined as 0.405 µM.
Under `C[C@H]1NC(=O)[C@]2(C)C[C@H]2CCCCCn2c(-c3nc4cc(C(=O)N[C@H]5CNCC[C@@H]5F)c(F)cc4n3C3CC3)cc3ccc1nc32` [Example 544, 1-cyclopropyl-2-[(2~ {R},5~{R},7~{R})-2,5-dimethyl-4-oxo-3,13,19-triazatetracyclo [11.5.2.0^{5,7}.0^{16,20}]icosa-1(19),14,16(20), 17-tetraen-14-yl]-6-fluoro-~ {N}-[(3~{S},4~{S})-4-fluoro-3-piperidyl]benzimidazole-5-carboxamide] stands 0.04 µM; under `C[C@H]1NC(=O)[C@@]2(C)C[C@@H]2CCCCCn2c(-c3nc4cc(C(=O)N[C@H]5CNCC[C@@H]5F)c(F)cc4n3C3CC3)cc3ccc1nc32` [Example 545, 1-cyclopropyl-2-[(2~ {R},5~{S},7~{S})-2,5-dimethyl-4-oxo-3,13,19-triazatetracyclo[11.5.2.0^ {5,7}.0^{16,20}]icosa-1(19),14,16(20), 17-tetraen-14-yl]-6-fluoro-~{N}-[(3~ {S},4~{S})-4-fluoro-3-piperidyl]benzimidazole-5-carboxamide], 0.056 µM.
Under `C[C@H]1NC(=O)c2nn(C)nc2CCCCCn2c(-c3nc4cc(C(=O)N[C@H]5CNCC[C@@H]5F)c(F)cc4n3C)cc3ccc1nc32` [Example 546, 2-[(2~{R})-2,7-dimethyl-4-oxo-3,6,7,8,15,21-hexazatetracyclo[13.5.2.0^ {5,9}.0^{18,22}]docosa-1(21),5,8,16,18(22), 19-hexaen-16-yl]-6-fluoro-~{N}-[(3~{S},4~{S})-4-fluoro-3-piperidyl]-1-methyl-benzimidazole-5-carboxamide] stands 0.059 µM.
In the case of `C[C@H]1NC(=O)[C@H]2C[C@@H]2C/C=C/C(F)(F)Cn2c(-c3nc4cc(C(=O)N[C@H]5CNCC[C@@H]5F)c(F)c(F)c4n3C)cc3ccc1nc32` [Example 547, 2-[(2~{R},5~{S},7~ {S},9~{E})-11,11-difluoro-2-methyl-4-oxo-3,13,19-triazatetracyclo [11.5.2.0^{5,7}.0^{16,20}]icosa-1(19),9,14,16(20), 17-pentaen-14-yl]-6,7-difluoro-~ {N}-[(3~{S},4~{S})-4-fluoro-3-piperidyl]-1-methyl-benzimidazole-5-carboxamide] it was 0.05 µM; in that of `C[C@H]1NC(=O)[C@@]2(C)C[C@@H]2CCCCCn2c(-c3nc4cc(C(=O)N[C@H]5CNCC[C@@H]5F)c(F)cc4n3C)cc3ccc1nc32` [Example 548, 2-[(2~{R},5~{S},7~ {S})-2,5-dimethyl-4-oxo-3,13,19-triazatetracyclo[11.5.2.0^ {5,7}.0^{16,20}]icosa-1(19),14,16(20),17-tetraen-14-yl]-6-fluoro-~{N}-[(3~{S},4~{S})-4-fluoro-3-piperidyl]-1-methyl-benzimidazole-5-carboxamide], 0.056 µM.
As to `C[C@H]1NC(=O)[C@@]2(C)C[C@@H]2CCCC(F)(F)Cn2c(-c3nc4cc(C(=O)N[C@H]5CNCC[C@@H]5F)c(F)cc4n3C)cc3ccc1nc32` [Example 549, 2-[(2~{R},5~{S},7~ {S})-11,11-difluoro-2,5-dimethyl-4-oxo-3,13,19-triazatetracyclo [11.5.2.0^{5,7).0^ {16,20}]icosa-1(19), 14,16(20),17-tetraen-14-yl]-6-fluoro-~{N}-[(3~ {S},4~{S})-4-fluoro-3-piperidyl]-1-methyl-benzimidazole-5-carboxamide], the IC50 stood at 0.129 µM.
Regarding `Cc1cc2c(cc1C(=O)N[C@H]1CNCC[C@@H]1F)nc(-c1cc3ccc4nc3n1CC(F)(F)/C=C/C[C@H]1C[C@@H]1C(=O)N[C@@H]4C)n2C` [Example 550, 2-[(2~{R},5~{S},7~ {S},9~{E})-11,11-difluoro-2-methyl-4-oxo-3,13,19-triazatetracyclo [11.5.2.0^{5,7}.0^{16,20}]icosa-1(19),9,14,16(20), 17-pentaen-14-yl]-~{N}-[(3~{S},4~{S})-4-fluoro-3-piperidyl]-1,6-dimethyl-benzimidazole-5-carboxamide], the IC50 stood at 0.06 µM.
Under `Cc1cc2c(cc1C(=O)N[C@H]1CNCC[C@@H]1F)nc(-c1cc3ccc4nc3n1CC(F)(F)CCC[C@@H]1C[C@H]1C(=O)N[C@@H]4C)n2C` [Example 551, 2-[(2~{R},5~{R},7~ {R})-11,11-difluoro-2-methyl-4-oxo-3,13,19-triazatetracyclo[11.5.2.0^ {5,7).0^{16,20}]icosa-1(19),14,16(20),17-tetraen-14-yl]-~{N}-[(3~ {S},4~{S})-4-fluoro-3-piperidyl]-1,6-dimethyl-benzimidazole-5-carboxamide] stands 0.043 µM; under `C[C@H]1NC(=O)[C@@]2(C)C[C@@H]2C/C=C/C(F)(F)Cn2c(-c3nc4cc(C(=O)N[C@H]5CNCC[C@@H]5F)c(F)cc4n3C)cc3ccc1nc32` [Example 552, 2-[(2~{R},5~{S},7~{S}, 9~{E})-11,11-difluoro-2,5-dimethyl-4-oxo-3,13,19-triazatetracyclo[11.5.2.0^ {5,7}.0^{16,20}]icosa-1(19),9,14,16(20), 17-pentaen-14-yl]-6-fluoro-~{N}-[(3~{S},4~ {S})-4-fluoro-3-piperidyl]-1-methyl-benzimidazole-5-carboxamide], 0.061 µM; under `C[C@H]1NC(=O)[C@]2(C)C[C@H]2CCCC(F)(F)Cn2c(-c3nc4cc(C(=O)N[C@H]5CNCC[C@@H]5F)c(F)cc4n3C)cc3ccc1nc32` [Example 553, 2-[(2~{R},5~{R},7~ {R})-11,11-difluoro-2,5-dimethyl-4-oxo-3,13,19-triazatetracyclo [11.5.2.0^{5,7}.0^ {16,20}]icosa-1(19),14, 16(20),17-tetraen-14-yl]-6-fluoro-~{N}-[(3~{S}, 4~{S})-4-fluoro-3-piperidyl]-1-methyl-benzimidazole-5-carboxamide], 0.047 µM.
Under `C[C@H]1NC(=O)[C@]2(C)C[C@H]2CCCC(F)(F)Cn2c(-c3nc4cc(C(=O)N5[C@H]6CC[C@@H]5[C@H](N)C6)c(F)cc4n3C)cc3ccc1nc32` [Example 554, (2~{R},5~{R},7~ {R})-14-[5-[(1~{R},2~ {R},4~{S})-2-amino-7-azabicyclo[2.2.1]heptane-7-carbonyl]-6-fluoro-1-methyl-benzimidazol-2-yl]-11,11-difluoro-2,5-dimethyl-3,13,19-triazatetracyclo[11.5.2.0^ {5,7}.0^{16,20}]icosa-1(19), 14,16(20),17-tetraen-4-one] stands 0.034 µM; under `C[C@H]1NC(=O)C(C)(C)CCCCCCn2c(-c3nc4cc(C(=O)N5[C@H]6CC[C@@H]5[C@H](N)C6)c(F)c(F)c4n3C)cc3ccc1nc32` [Example 555, (11~{R})-17-[5-[(1~{R}, 2~{R},4~{S})-2-amino-7-azabicyclo [2.2.1]heptane-7-carbonyl]-6,7-difluoro-1-methyl-benzimidazol-2-yl]-8,8,11-trimethyl-1,10,19-triazatricyclo [10.5.2.0^{15,18}]nonadeca-12(19),13,15(18),16-tetraen-9-one], 0.056 µM.

Usually IC50 stands for the midpoint of a concentration-inhibition curve.
